Target: human TYK2 (JH2domain-pseudokinase) (Homo sapiens (Human), UniProt P29597)
Assay: TYK2 JH2 Domain Binding Assay (KINOMEscan, DiscoveRx)
Conditions: 11-point dilution, duplicate
Procedure, shortened: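 TYK2 JH2 (G556–D888)–NFkB DBD fusion, DNA-tagged, from HEK293 extracts (<0.1 nM) competed against immobilised biotinylated ligand for 1 h at room temperature, 0.9% DMSO. Bead-retained kinase quantified by qPCR; Kd from 11-point 3-fold series (top 30,000 nM, duplicate), Hill fit with slope −1.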

Chain of human TYK2 (JH2domain-pseudokinase) (P29597 556-888): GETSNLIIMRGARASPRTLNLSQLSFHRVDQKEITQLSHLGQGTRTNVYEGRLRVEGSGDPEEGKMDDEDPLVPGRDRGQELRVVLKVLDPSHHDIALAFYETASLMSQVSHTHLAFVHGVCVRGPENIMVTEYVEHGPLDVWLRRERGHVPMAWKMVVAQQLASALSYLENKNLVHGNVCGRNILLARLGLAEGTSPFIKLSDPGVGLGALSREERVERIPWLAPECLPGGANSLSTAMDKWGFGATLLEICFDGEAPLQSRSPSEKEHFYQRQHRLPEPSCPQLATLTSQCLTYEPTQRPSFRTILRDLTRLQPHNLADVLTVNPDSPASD

## CS(=O)(=O)c1cc(C2CCC2)ccc1Nc1cc(NC(=O)C2CC2(F)F)nc2[nH]c(C(F)F)nc12 (stereo not drawn) [I-358, N-(7-((4-cyclobutyl-2-(methylsulfonyl)phenyl)amino)-2-(difluoromethyl)-3H-imidazo[4,5-b]pyridin-5-yl)-2,2-difluorocyclopropane-1-carboxamide]
  Kd: > 10 nM

## CS(=O)(=O)c1cc([C@@H]2CCCOC2)ccc1Nc1cc(NC(=O)C2CC2(F)F)nc2[nH]c(C(F)F)nc12 (stereo partly drawn) [I-359, N-(2-(difluoromethyl)-7-((2-(methylsulfonyl)-4-((S)-tetrahydro-2H-pyran-3-yl)phenyl)amino)-3H-imidazo[4,5-b]pyridin-5-yl)-2,2-difluorocyclopropane-1-carboxamide]
  Kd: 1 to 10 nM

## CS(=O)(=O)c1cc([C@H]2CCCOC2)ccc1Nc1cc(NC(=O)C2CC2(F)F)nc2[nH]c(C(F)F)nc12 (stereo partly drawn) [I-360, N-(2-(difluoromethyl)-7-((2-(methylsulfonyl)-4-((R)-tetrahydro-2H-pyran-3-yl)phenyl)amino)-3H-imidazo[4,5-b]pyridin-5-yl)-2,2-difluorocyclopropane-1-carboxamide]
  Kd: 1 to 10 nM

## Cc1nc2c(Nc3ccc(C4CCC4)cc3S(C)(=O)=O)cc(NC(=O)C3CC3(F)F)nc2[nH]1 (stereo not drawn) [I-361, N-(7-((4-cyclobutyl-2-(methylsulfonyl)phenyl)amino)-2-methyl-3H-imidazo[4,5-b]pyridin-5-yl)-2,2-difluorocyclopropane-1-carboxamide]
  Kd: 1 to 10 nM

## CN=S(C)(=O)c1ccccc1Nc1cc(NC(=O)C2CC2)nc2[nH]c(C(F)F)nc12 (stereo not drawn) [I-362]
  Kd: 0.1 to 0.5 nM

## Cc1nc2c(Nc3ccc(-c4nn(C)cc4C)cc3S(C)(=O)=O)cc(NC(=O)C3CC3(C)C)nc2[nH]1 (stereo not drawn) [I-363, N-(7-((4-(1,4-dimethyl-1H-pyrazol-3-yl)-2-(methylsulfonyl)phenyl)amino)-2-methyl-3H-imidazo[4,5-b]pyridin-5-yl)-2,2-dimethylcyclopropane-1-carboxamide]
  Kd: 1 to 10 nM

## Cc1cn(C)nc1-c1ccc(Nc2cc(NC(=O)C3CC3(C)C)nc3[nH]c(C(F)F)nc23)c(S(C)(=O)=O)c1 (stereo not drawn) [I-364, N-(2-(difluoromethyl)-7-((4-(1,4-dimethyl-1H-pyrazol-3-yl)-2-(methylsulfonyl)phenyl)amino)-3H-imidazo[4,5-b]pyridin-5-yl)-2,2-dimethylcyclopropane-1-carboxamide]
  Kd: 1 to 10 nM

## CS(=O)(=O)c1cc(C2CCCCO2)ccc1Nc1cc(Nc2cccc(C(F)(F)F)n2)nc2[nH]c(C(F)F)nc12 (stereo not drawn) [I-365, 2-(difluoromethyl)-N7-(2-(methylsulfonyl)-4-(tetrahydro-2H-pyran-2-yl)phenyl)-N5-(6-(trifluoromethyl)pyridin-2-yl)-3H-imidazo[4,5-b]pyridine-5,7-diamine]
  Kd: 0.5 to 1 nM

## Cc1cc(Nc2cc(Nc3ccc(C4CCCCO4)cc3S(C)(=O)=O)c3nc(C(F)F)[nH]c3n2)nc(C)n1 (stereo not drawn) [I-366, 2-(difluoromethyl)-N5-(2,6-dimethylpyrimidin-4-yl)-N7-(2-(methylsulfonyl)-4-(tetrahydro-2H-pyran-2-yl)phenyl)-3H-imidazo[4,5-b]pyridine-5,7-diamine]
  Kd: < 0.1 nM

## Cc1cc(Nc2cc(Nc3ccc(C4CCCCO4)cc3S(C)(=O)=O)c3nc(C)[nH]c3n2)nc(C)n1 (stereo not drawn) [I-367, N5-(2,6-dimethylpyrimidin-4-yl)-2-methyl-N7-(2-(methylsulfonyl)-4-(tetrahydro-2H-pyran-2-yl)phenyl)-3H-imidazo[4,5-b]pyridine-5,7-diamine]
  Kd: < 0.1 nM

## CN(c1cc(C2CCCCO2)ccc1Nc1cc(NC(=O)C2CC2)nc2[nH]c(C(F)F)nc12)S(C)(=O)=O (stereo not drawn) [I-369, N-(2-(difluoromethyl)-7-((2-(N-methylmethylsulfonamido)-4-(tetrahydro-2H-pyran-2-yl)phenyl)amino)-3H-imidazo[4,5-b]pyridin-5-yl)cyclopropanecarboxamide]
  Kd: 0.1 to 0.5 nM

## CN(c1cc(-c2cncn2C)ccc1Nc1cc(NC(=O)[C@H]2C[C@@H]2F)nc2[nH]c(C(F)F)nc12)S(C)(=O)=O [I-370, (1R,2S)—N-(2-(difluoromethyl)-7-((4-(1-methyl-1H-imidazol-5-yl)-2-(N-methylmethylsulfonamido)phenyl)amino)-3H-imidazo[4,5-b]pyridin-5-yl)-2-fluorocyclopropane-1-carboxamide]
  Kd: 0.1 to 0.5 nM

## Cn1ccc(-c2ccc(Nc3cc(NC(=O)[C@H]4C[C@@H]4F)nc4[nH]c(C(F)F)nc34)c(S(C)(=O)=O)c2)n1 [I-371, (1R,2S)—N-(2-(difluoromethyl)-7-((4-(1-methyl-1H-pyrazol-3-yl)-2-(methylsulfonyl)phenyl)amino)-3H-imidazo[4,5-b]pyridin-5-yl)-2-fluorocyclopropane-1-carboxamide]
  Kd: 0.1 to 0.5 nM

## Cc1nc2c(Nc3ccc(-c4cnn(C)c4)cc3N(C)S(C)(=O)=O)cc(NC(=O)[C@H]3C[C@@H]3F)nc2[nH]1 [I-372, (1R,2S)-2-fluoro-N-(2-methyl-7-((4-(1-methyl-1H-pyrazol-4-yl)-2-(N-methylmethylsulfonamido)phenyl)amino)-3H-imidazo[4,5-b]pyridin-5-yl)cyclopropane-1-carboxamide]
  Kd: 0.5 to 1 nM

## COc1c(Nc2cc(NC(=O)[C@H]3C[C@@H]3F)nc3[nH]c(C)nc23)cccc1-c1ncn(C)n1 [I-373, (1R,2S)-2-fluoro-N-(7-((2-methoxy-3-(1-methyl-1H-1,2,4-triazol-3-yl)phenyl)amino)-2-methyl-3H-imidazo[4,5-b]pyridin-5-yl)cyclopropane-1-carboxamide]
  Kd: 1 to 10 nM

## Cc1nc2c(Nc3ccc(C4CCCCO4)cc3N(C)S(C)(=O)=O)cc(NC(=O)C3CC3)nc2[nH]1 (stereo not drawn) [I-375, N-(2-methyl-7-((2-(N-methylmethylsulfonamido)-4-(tetrahydro-2H-pyran-2-yl)phenyl)amino)-3H-imidazo[4,5-b]pyridin-5-yl)cyclopropanecarboxamide]
  Kd: 0.1 to 0.5 nM

## Cc1nc2c(Nc3ccc(-c4cnn(C)c4)cc3N(C)S(C)(=O)=O)cc(NC(=O)C3CC3(F)F)nc2[nH]1 (stereo not drawn) [I-376, 2,2-difluoro-N-(2-methyl-7-((4-(1-methyl-1H-pyrazol-4-yl)-2-(N-methylmethylsulfonamido)phenyl)amino)-3H-imidazo[4,5-b]pyridin-5-yl)cyclopropane-1-carboxamide]
  Kd: > 10 nM

## Cc1nc2c(Nc3ccc(-c4ccn(C)n4)cc3S(C)(=O)=O)cc(NC(=O)C3CC3(F)F)nc2[nH]1 (stereo not drawn) [I-377, 2,2-difluoro-N-(2-methyl-7-((4-(1-methyl-1H-pyrazol-3-yl)-2-(methylsulfonyl)phenyl)amino)-3H-imidazo[4,5-b]pyridin-5-yl)cyclopropane-1-carboxamide]
  Kd: 0.5 to 1 nM

## Cc1nc2c(Nc3ccc(-c4cn(C)cn4)cc3S(C)(=O)=O)cc(NC(=O)C3CC3(F)F)nc2[nH]1 (stereo not drawn) [I-378, N-(7-((4-(1l2-imidazol-4-yl)-2-(methylsulfonyl)phenyl)amino)-2-methyl-3H-imidazo[4,5-b]pyridin-5-yl)-2,2-difluorocyclopropane-1-carboxamide]
  Kd: 0.5 to 1 nM

## Cn1cncc1-c1ccc(Nc2cc(NC(=O)C3CC3(F)F)nc3[nH]c(C(F)F)nc23)c(S(C)(=O)=O)c1 (stereo not drawn) [I-379, N-(2-(difluoromethyl)-7-((4-(1-methyl-1H-imidazol-5-yl)-2-(methylsulfonyl)phenyl)amino)-3H-imidazo[4,5-b]pyridin-5-yl)-2,2-difluorocyclopropane-1-carboxamide]
  Kd: 0.1 to 0.5 nM

## CN(c1cc(-c2cncn2C)ccc1Nc1cc(NC(=O)C2CC2(F)F)nc2[nH]c(C(F)F)nc12)S(C)(=O)=O (stereo not drawn) [I-380, N-(2-(difluoromethyl)-7-((4-(1-methyl-1H-imidazol-5-yl)-2-(N-methylmethylsulfonamido)phenyl)amino)-3H-imidazo[4,5-b]pyridin-5-yl)-2,2-difluorocyclopropane-1-carboxamide]
  Kd: 0.5 to 1 nM

## Cn1cnc(-c2ccc(Nc3cc(NC(=O)C4CC4(F)F)nc4[nH]c(C(F)F)nc34)c(S(C)(=O)=O)c2)c1 (stereo not drawn) [I-381, N-(2-(difluoromethyl)-7-((4-(1-methyl-1H-imidazol-4-yl)-2-(methylsulfonyl)phenyl)amino)-3H-imidazo[4,5-b]pyridin-5-yl)-2,2-difluorocyclopropane-1-carboxamide]
  Kd: 1 to 10 nM

## Cc1nc2c(Nc3ccc(-c4cncn4C)cc3S(C)(=O)=O)cc(NC(=O)C3CC3(F)F)nc2[nH]1 (stereo not drawn) [I-382, 2,2-difluoro-N-(2-methyl-7-((4-(1-methyl-1H-imidazol-5-yl)-2-(methylsulfonyl)phenyl)amino)-3H-imidazo[4,5-b]pyridin-5-yl)cyclopropane-1-carboxamide]
  Kd: 0.1 to 0.5 nM

## COc1cc(Nc2ccc(-c3ccn(C)n3)cc2S(C)(=O)=O)c2nc(C)[nH]c2n1 [I-383, 5-methoxy-2-methyl-N-(4-(1-methyl-1H-pyrazol-3-yl)-2-(methylsulfonyl)phenyl)-3H-imidazo[4,5-b]pyridin-7-amine]
  Kd: > 10 nM

## Cc1nc2c(Nc3ccc(-c4cncn4C)cc3N(C)S(C)(=O)=O)cc(NC(=O)C3CC3(F)F)nc2[nH]1 (stereo not drawn) [I-384, 2,2-difluoro-N-(2-methyl-7-((4-(1-methyl-1H-imidazol-5-yl)-2-(N-methylmethylsulfonamido)phenyl)amino)-3H-imidazo[4,5-b]pyridin-5-yl)cyclopropane-1-carboxamide]
  Kd: 0.5 to 1 nM

## CN(c1cc(-c2cnn(C)c2)ccc1Nc1cc(NC(=O)C2CC2(F)F)nc2[nH]c(C(F)F)nc12)S(C)(=O)=O (stereo not drawn) [I-385, N-(2-(difluoromethyl)-7-((4-(1-methyl-1H-pyrazol-4-yl)-2-(N-methylmethylsulfonamido)phenyl)amino)-3H-imidazo[4,5-b]pyridin-5-yl)-2,2-difluorocyclopropane-1-carboxamide]
  Kd: 0.5 to 1 nM

## Cn1ccc(-c2ccc(Nc3cc(NC(=O)C4CC4(F)F)nc4[nH]c(C(F)F)nc34)c(S(C)(=O)=O)c2)n1 (stereo not drawn) [I-386, N-(2-(difluoromethyl)-7-((4-(1-methyl-1H-pyrazol-3-yl)-2-(methylsulfonyl)phenyl)amino)-3H-imidazo[4,5-b]pyridin-5-yl)-2,2-difluorocyclopropane-1-carboxamide]
  Kd: 0.5 to 1 nM

— patent US10647713B2 (Nimbus Lakshmi, Inc., priority 2016, dated 2020)
